Consider ten compounds from patent US10077261B2, “Imidazolin-5-one derivative useful as FASN inhibitors for the treatment of cancer” (Janssen Pharmaceutica NV, priority 2012, dated 2018).

The inhibition is how much of the control response was suppressed.

In the assay the target is T1, hFASN enzyme (full length) (Homo sapiens, UniProt P49327).
T1 construct: 10 μL hFASN enzyme (full length, 300 ng, purified in house); made in house
The experiment in a line: Fatty Acid Synthase (FASN) inhibition scintillation proximity assay. As to conditions: for inhibition at 10 µM: read-out: Human FASN % inhibition @ 10 μM, 10 μM test compound; for IC50: read-out: Human FASN pIC50 (converted). The format is biochemical. The procedure, abridged: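 Compounds at 0.01–30 μM were mixed with 300 ng purified full-length enzyme in 100 mM KH2PO4 pH 7.5, 1 mM DTT. Substrates ³H-acetyl-CoA and malonyl-CoA were then converted, and bead addition stopped the reaction. Signal was normalised to low and high plate controls and fitted by 4-parameter nonlinear regression.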
A general note: In a scintillation proximity assay essentially only radioactivity close to the scintillant gives light.

T1 sequence (P49327 whole entry): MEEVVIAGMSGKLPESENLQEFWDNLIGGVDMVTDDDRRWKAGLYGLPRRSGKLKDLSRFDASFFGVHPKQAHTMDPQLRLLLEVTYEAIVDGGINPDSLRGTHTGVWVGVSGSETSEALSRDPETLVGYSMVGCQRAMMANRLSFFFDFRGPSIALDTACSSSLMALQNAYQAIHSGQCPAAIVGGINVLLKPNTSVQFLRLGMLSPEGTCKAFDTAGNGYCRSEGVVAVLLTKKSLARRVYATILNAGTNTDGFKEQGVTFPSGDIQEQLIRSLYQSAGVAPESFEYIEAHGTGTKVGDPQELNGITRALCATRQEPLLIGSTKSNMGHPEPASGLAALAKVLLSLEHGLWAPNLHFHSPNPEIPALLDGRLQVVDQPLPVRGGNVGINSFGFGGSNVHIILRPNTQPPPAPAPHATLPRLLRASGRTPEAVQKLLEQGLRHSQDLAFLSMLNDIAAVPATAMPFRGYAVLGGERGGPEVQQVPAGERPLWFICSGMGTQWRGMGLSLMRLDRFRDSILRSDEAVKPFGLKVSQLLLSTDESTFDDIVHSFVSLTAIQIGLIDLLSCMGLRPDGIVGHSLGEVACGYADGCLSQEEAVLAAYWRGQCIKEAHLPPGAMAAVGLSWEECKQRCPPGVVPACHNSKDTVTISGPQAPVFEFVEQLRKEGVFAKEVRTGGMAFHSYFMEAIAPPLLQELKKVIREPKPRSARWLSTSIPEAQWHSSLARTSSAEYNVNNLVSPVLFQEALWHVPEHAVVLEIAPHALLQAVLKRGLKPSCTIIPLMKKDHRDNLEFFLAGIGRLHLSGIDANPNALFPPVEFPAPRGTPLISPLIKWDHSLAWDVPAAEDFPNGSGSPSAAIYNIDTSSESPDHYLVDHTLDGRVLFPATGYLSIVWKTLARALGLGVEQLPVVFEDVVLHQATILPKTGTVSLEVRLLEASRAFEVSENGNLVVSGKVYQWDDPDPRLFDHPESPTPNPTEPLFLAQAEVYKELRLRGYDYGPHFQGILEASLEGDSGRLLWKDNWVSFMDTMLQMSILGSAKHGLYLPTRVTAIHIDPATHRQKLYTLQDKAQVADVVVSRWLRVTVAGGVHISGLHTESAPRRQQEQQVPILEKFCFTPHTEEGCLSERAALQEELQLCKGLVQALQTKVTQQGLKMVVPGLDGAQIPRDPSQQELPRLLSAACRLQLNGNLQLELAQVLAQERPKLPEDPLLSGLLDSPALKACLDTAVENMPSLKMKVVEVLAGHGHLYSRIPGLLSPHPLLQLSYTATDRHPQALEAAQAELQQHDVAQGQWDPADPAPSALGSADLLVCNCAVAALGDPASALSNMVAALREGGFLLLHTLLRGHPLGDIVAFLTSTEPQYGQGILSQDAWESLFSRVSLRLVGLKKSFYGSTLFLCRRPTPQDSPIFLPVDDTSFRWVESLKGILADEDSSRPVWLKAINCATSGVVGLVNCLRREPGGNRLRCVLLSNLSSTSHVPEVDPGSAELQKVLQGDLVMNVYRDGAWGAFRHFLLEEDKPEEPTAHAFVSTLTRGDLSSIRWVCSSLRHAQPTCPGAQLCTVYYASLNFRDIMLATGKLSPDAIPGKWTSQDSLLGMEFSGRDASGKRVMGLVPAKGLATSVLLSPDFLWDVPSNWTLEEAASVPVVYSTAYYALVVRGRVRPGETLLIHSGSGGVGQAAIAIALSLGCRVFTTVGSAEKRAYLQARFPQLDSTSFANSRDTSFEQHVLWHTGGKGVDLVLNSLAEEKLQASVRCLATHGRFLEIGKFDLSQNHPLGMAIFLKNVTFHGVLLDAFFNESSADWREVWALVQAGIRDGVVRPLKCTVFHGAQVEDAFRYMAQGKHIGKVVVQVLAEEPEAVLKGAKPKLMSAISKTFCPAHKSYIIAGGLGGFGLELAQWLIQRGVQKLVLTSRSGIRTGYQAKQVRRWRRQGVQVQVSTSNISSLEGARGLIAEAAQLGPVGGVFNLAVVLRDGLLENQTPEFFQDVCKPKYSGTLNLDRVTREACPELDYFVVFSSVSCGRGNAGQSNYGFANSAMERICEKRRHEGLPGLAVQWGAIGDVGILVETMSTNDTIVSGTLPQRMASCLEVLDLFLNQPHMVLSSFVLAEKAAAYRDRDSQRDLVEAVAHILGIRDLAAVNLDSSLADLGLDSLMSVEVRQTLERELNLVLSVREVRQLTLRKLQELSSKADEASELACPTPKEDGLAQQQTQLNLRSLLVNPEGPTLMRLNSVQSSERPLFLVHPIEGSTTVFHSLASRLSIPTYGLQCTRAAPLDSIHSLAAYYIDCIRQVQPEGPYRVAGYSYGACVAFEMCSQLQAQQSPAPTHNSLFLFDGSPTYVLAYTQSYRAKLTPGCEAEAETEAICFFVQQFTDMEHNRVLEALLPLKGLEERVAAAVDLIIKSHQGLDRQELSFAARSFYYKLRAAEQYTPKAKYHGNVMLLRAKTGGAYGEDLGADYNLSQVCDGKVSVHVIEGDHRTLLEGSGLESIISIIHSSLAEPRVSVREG

On to `Cn1ncc2cc(-c3ccc(C4=NC5(CCOCC5)C(=O)N4CC4CN(C(=O)C5CC5)C4)cc3)ccc21` [compound 706, 3-{[1-(Cyclopropylcarbonyl)azetidin-3-yl]methyl}-2-[4-(1-methyl-1H-indazol-5-yl)phenyl]-8-oxa-1,3-diazaspiro[4.5]dec-1-en-4-one], for which the inhibition at 10 µM is 65% and the IC50 is about 2.34 µM.
The corresponding values for `CC(O)C(=O)N1CC(CN2C(=O)C3(CCOCC3)N=C2c2ccc(-c3ccc4c(cnn4C)c3)cc2)C1` (centres unmarked) [compound 707, 3-{[1-(2-Hydroxypropanoyl)azetidin-3-yl]methyl}-2-[4-(1-methyl-1H-indazol-5-yl)phenyl]-8-oxa-1,3-diazaspiro[4.5]dec-1-en-4-one] are 55% and 6.46 µM.
Taken in the same sequence, the figures for `Cn1ncc2cc(-c3ccc(C4=NC5(CCOCC5)C(=O)N4CC4CN(C(=O)[C@H]5CCCO5)C4)cc3)ccc21` [compound 708, 2-[4-(1-Methyl-1H-indazol-5-yl)phenyl]-3-({1-[(2R)-tetrahydro-furan-2-ylcarbonyl]azetidin-3-yl}methyl)-8-oxa-1,3-diazaspiro[4.5]dec-1-en-4-one] were 76% and 1.86 µM.
For `Cn1ncc2cc(-c3ccc(C4=NC5(CCOCC5)C(=O)N4CC4CN(C(=O)N5CCCC5)C4)cc3)ccc21` [compound 709, 2-[4-(1-Methyl-1H-indazol-5-yl)phenyl]-3-{[1-(pyrrolidin-1-ylcarbonyl)azetidin-3-yl]methyl}-8-oxa-1,3-diazaspiro[4.5]dec-1-en-4-one], the inhibition at 10 µM was 64% and the IC50 was 4.07 µM.
The corresponding values for `Cn1cc(-c2ccc(-c3ccc(C4=NC5(CCOC5)C(=O)N4CC4CN(C(=O)C5CC5)C4)cc3)cc2)cn1` (centres unmarked) [compound 710, 3-{[1-(Cyclopropylcarbonyl)azetidin-3-yl]methyl}-2-[4′-(1-methyl-1H-pyrazol-4-yl)biphenyl-4-yl]-7-oxa-1,3-diazaspiro[4.4]non-1-en-4-one] are 66% and 2.82 µM.
As for `CC(O)C(=O)N1CC(CN2C(=O)C3(CCOC3)N=C2c2ccc(-c3ccc(-c4cnn(C)c4)cc3)cc2)C1` (centres unmarked) [compound 711, 3-{[1-(2-Hydroxypropanoyl)azetidin-3-yl]methyl}-2-[4′-(1-methyl-1H-pyrazol-4-yl)biphenyl-4-yl]-7-oxa-1,3-diazaspiro[4.4]non-1-en-4-one], the inhibition at 10 µM came out at 60% and the IC50 was 6.03 µM.
`Cn1cc(-c2ccc(-c3ccc(C4=NC5(CCOC5)C(=O)N4CC4CN(C(=O)[C@H]5CCCO5)C4)cc3)cc2)cn1` (stereo partly drawn) [compound 712, 2-[4′-(1-Methyl-1H-pyrazol-4-yl)biphenyl-4-yl]-3-({1-[(2R)-tetrahydro-furan-2-ylcarbonyl]azetidin-3-yl}methyl)-7-oxa-1,3-diazaspiro[4.4]non-1-en-4-one]: the inhibition at 10 µM was found to be 69% and the IC50 was 2.45 µM.
In the case of `Cn1cc(-c2ccc(-c3ccc(C4=NC5(CCOC5)C(=O)N4CC4CN(C(=O)N5CCCC5)C4)cc3)cc2)cn1` (centres unmarked) [compound 713, 2-[4′-(1-Methyl-1H-pyrazol-4-yl)biphenyl-4-yl]-3-{[1-(pyrrolidin-1-ylcarbonyl)azetidin-3-yl]methyl}-7-oxa-1,3-diazaspiro[4.4]non-1-en-4-one], the inhibition at 10 µM was 59% and the IC50 was about 6.76 µM.
The corresponding values for `O=C(C1CC1)N1CC(CN2C(=O)C3(CCOC3)N=C2c2ccc(-c3ccc4occc4c3)cc2)C1` (centres unmarked) [compound 718, 2-[4-(1-Benzofuran-5-yl)phenyl]-3-{[1-(cyclopropylcarbonyl)azetidin-3-yl]methyl}-7-oxa-1,3-diazaspiro[4.4]non-1-en-4-one] are 72% and about 2.4 µM.
As for `CC(O)C(=O)N1CC(CN2C(=O)C3(CCOC3)N=C2c2ccc(-c3ccc4occc4c3)cc2)C1` (centres unmarked) [compound 719, 2-[4-(1-Benzofuran-5-yl)phenyl]-3-{[1-(2-hydroxypropanoyl)azetidin-3-yl]methyl}-7-oxa-1,3-diazaspiro[4.4]non-1-en-4-one], the inhibition at 10 µM was determined as 67% and the IC50 is 3.89 µM.
